Experimental data: paper PMC6788984, “High-potency ligands for DREADD imaging and activation in rodents and monkeys” (Nature Communications, 2019)
“And” between values parts separate entries of the source, which are not always exact repeats. Equal values may be shown once. Read-outs that look alike come from different tables or passages of the source.

Key:
[1] = biological target: T1, hM4Di (Homo sapiens, UniProt P08173, A203G/Y113C); assay: BRET Galpha-o1 protein activation assay in HEK-293 cells transfected with hM4Di; assay type: cell-based; parameters: host or cells: HEK-293; conditions: for hM4Di activation, concentration-response points: replicates
T1 sequence (P08173 1-479 Y113C/A203G): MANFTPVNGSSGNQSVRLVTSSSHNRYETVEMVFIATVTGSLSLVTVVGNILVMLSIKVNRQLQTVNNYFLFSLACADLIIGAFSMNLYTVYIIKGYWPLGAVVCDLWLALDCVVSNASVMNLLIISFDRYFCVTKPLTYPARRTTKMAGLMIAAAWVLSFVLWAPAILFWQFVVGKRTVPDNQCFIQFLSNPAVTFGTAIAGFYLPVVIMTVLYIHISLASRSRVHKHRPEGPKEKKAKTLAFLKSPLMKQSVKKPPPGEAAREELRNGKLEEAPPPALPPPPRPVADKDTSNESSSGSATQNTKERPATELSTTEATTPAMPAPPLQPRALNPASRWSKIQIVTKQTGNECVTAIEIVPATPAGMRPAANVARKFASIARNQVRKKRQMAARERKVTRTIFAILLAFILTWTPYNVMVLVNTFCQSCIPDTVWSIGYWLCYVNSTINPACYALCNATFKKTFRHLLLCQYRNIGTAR
Method: (§1) The indicated amount of cDNA was transfected into HEK-293 cells using polyethylenimine (PEI; Sigma-Aldrich) in a 1–2 DNA:PEI ratio. Cell harvesting for radioligand binding experiments or signaling assays were performed approximately 48 h after transfection.
BRET assays were performed to detect receptor ligand-induced Gαo1 protein activation. […] Forty-eight hour after transfection cells were harvested, washed and resuspended in phosphate-buffered saline (PBS). Approximately, 200,000 cells/well were distributed in 96-well plates, and 5 µM Coelenterazine H (substrate for luciferase) was added to each well. Five minutes after addition of Coelenterazine H, ligands were added to each well. […] Results were calculated for the BRET change (BRET ratio for the corresponding drug minus BRET ratio in the absence of the drug) 5 min after the addition of the ligands.

[2] = biological target: T2, hM3Dq (Homo sapiens, UniProt P20309, A239G/Y149C)
From the text: (§2) Wild-type mice (C57BL/6J) were ordered from Jackson Laboratories and rats (Sprague–Dawley) were ordered from Charles River. Rodents were male and ordered at ~6 weeks of age. Transgenic mice were bred at NIDA breeding facility. […] Three male rhesus monkeys (Macaca mulatta) weighed 8–12 kg. All experiments and procedures complied with all relevant ethical regulations for animal testing and research and followed NIH guidelines and were approved by each institute’s animal care and use committees.
(§3) Ten minutes after injection, animals were placed in an open field arena (Opto-varimex ATM3, Columbus Instruments) and their locomotor activity was tracked during 60 min as infrared beam crossings and traveled distance was converted to cm. Animals were repeatedly tested on consecutive sessions (after an initial habituation session with no drug treatment) in a counterbalanced design.

[3] = biological target: T2, hM3Dq; assay: Intracellular Ca2+ assay (GCaMP6f) in HEK-293 cells transfected with hM3Dq; assay type: cell-based; parameters: host or cells: HEK-293; conditions: for hM3Dq activation, concentration-response points: replicates
Method: as §1
Intracellular Ca^2+ concentration was monitored using the fluorescent Ca^2+ biosensor GCaMP6f. […] The net change in intracellular Ca^2+ concentration was expressed as F − F0 where F is the fluorescence at a given concentration of ligand and F0 is the average of the baseline values (fluorescence values of buffer-treated wells).

[4] = biological target: T2, hM3Dq; assay: [3H]clozapine competition binding, membranes of HEK-293 cells expressing hM3Dq
Method: (§4) Cells were routinely tested for myclopasma contamination (MycoAlert® Mycoplasma Detection Kit, Lonza). Cells were seeded on 60 cm^2 dishes at 4 × 10^6 cells/dish 24 h before transfection. The indicated amount of cDNA was transfected into HEK-293 cells using polyethylenimine (PEI; Sigma-Aldrich) in a 1–2 DNA:PEI ratio. Cell harvesting for radioligand binding experiments or signaling assays were performed approximately 48 h after transfection.
(§5) Cells were suspended in Tris-HCl 50 mM pH 7.4 supplemented with protease inhibitor cocktail (1:100, Sigma-Aldrich, St. Louis, MO, USA). The dissected brain tissue was diluted in Tris-HCl 50 mM buffer supplemented with protease inhibitor cocktail (1:1000). HEK-293 cells or brain tissue were disrupted with a Polytron homogenizer (Kinematica, Basel, Switzerland). Homogenates were centrifuged at 48,000g (50 min, 4 °C) and washed twice in the same conditions to isolate the membrane fraction. Protein was quantified by the bicinchoninic acid method (Pierce). […] In all cases, free and membrane-bound radioligand were separated by rapid filtration of 500-μl aliquots in a 96-well plate harvester (Brandel, Gaithersburg, MD, USA) and washed with 2 ml of ice-cold Tris-HCl buffer. […] One-site competition curves were fitted using Prism 7 (GraphPad Software, La Jolla, CA, USA). Ki values were calculated using the Cheng–Prusoff equation.

[5] = biological target: T1, hM4Di; assay: [3H]clozapine competition binding, membranes of HEK-293 cells expressing hM4Di; conditions: read-out: hM4Di Ki; [3H]clozapine competition, HEK-293 membranes
Method: as §4, §5

[6] = tested on: WT mice; assay: Locomotor activity in WT mice
From the text: as §2, §3

[7] = biological target: T1, hM4Di; assay: Locomotor activity in D1-hM4Di mice
From the text: as §2, §3

[8] = Brain and serum concentrations in mice after IP injection (LC-MS/MS); assay type: in vivo, mouse; conditions: mice; for brain/serum concentration ratio: 1 mg kg-1 IP
Method: Monkey blood and CSF samples were collected from totally implanted subcutaneous access ports (Access Technologies, Virginia), connected to catheters indwelling in the femoral artery or intrathecal space of the spinal column, respectively. Rodent blood samples and brains were collected immediately following sacrifice at the indicated time points after intraperitoneal injection (10 ml kg^−1) in buffered saline. CSF was immediately frozen on dry ice and stored at −80 °C. Blood samples were allowed to coagulate for 15 min and then centrifuged at 4 °C for 15 min. Serum was collected from the supernatant and stored at a minimum of −30 °C until extraction. To 25 µl of serum, 5 µl of internal standard and 110 µl of methanol were added. Samples were centrifuged for 10 min at 16,200×g at 4 °C and the supernatant was transferred to the autosampler vial for analysis. Brains were cut in half and weighed prior to sample preparation. Half brains were homogenized in 490 µl of 85% ethanol: 15% water containing 0.1% formic acid and 5 µl of internal standard using a polytron homogenizer and centrifuged for 10 min at 16,200×g at 4 °C. A 300 µl of supernatant was dried under a stream of nitrogen and resuspended in 150 µl methanol. The resuspended solution was then centrifuged and 100 µl of supernatant was transferred to the autosampler vial for analysis.
Data were acquired using a Nexera XR HPLC (Shimadzu) coupled with a QTRAP 6500 (SCIEX), and was analyzed with Analyst 1.6 (SCIEX). The positive-ion mode data were obtained using multiple reaction monitoring (MRM). The instrumental source setting for curtain gas, ion spray voltage, temperature, ion source gas 1, and ion source gas 2 were 30 psi, 5500 V, 500 C, […], respectively.
Mobile phase A consisted of water containing 0.1% formic acid and mobile phase B was methanol containing 0.1% formic acid. […] The injection volume per sample was 10 μl. Samples were kept at 4 °C in the autosampler tray prior to injection.
The data were measured using standard curves and quality controls, but it was not validated to ICH guidelines. […] Quality control standards (low, middle and high) were prepared by adding the spiking standard to solution to 25 μl of serum and/or a half-brain and relative values are reported.

T2 sequence (P20309 whole entry Y149C/A239G): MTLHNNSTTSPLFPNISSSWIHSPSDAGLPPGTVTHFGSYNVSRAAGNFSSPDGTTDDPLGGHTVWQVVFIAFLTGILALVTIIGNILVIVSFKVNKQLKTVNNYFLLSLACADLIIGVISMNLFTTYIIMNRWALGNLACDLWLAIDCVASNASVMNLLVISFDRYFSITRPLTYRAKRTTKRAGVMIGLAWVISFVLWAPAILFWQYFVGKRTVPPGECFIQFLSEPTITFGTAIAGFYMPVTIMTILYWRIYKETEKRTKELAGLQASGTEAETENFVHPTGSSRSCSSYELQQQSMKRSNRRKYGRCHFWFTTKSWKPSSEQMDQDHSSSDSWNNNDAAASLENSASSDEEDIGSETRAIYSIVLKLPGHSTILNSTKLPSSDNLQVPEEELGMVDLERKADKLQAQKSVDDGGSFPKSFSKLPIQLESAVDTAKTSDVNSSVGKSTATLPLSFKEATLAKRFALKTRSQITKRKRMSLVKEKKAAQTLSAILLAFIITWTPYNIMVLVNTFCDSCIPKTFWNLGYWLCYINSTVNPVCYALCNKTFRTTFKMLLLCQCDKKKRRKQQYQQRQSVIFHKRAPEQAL

## c1ccc2c(c1)N=C(N1CCNCC1)c1ccccc1N2 [C21]
[1]; Log [compound] -4
  hM4Di activation, concentration-response points: 96.8817
[1]; Log [compound] -4.5
  hM4Di activation, concentration-response points: 116.397
[1]; Log [compound] -5
  hM4Di activation, concentration-response points: 108.743 and 111.119 and 118.355
[1]; Log [compound] -6
  hM4Di activation, concentration-response points: 104.765 and 108.926 and 107.08
[1]; Log [compound] -7
  hM4Di activation, concentration-response points: 91.0167 and 106.137 and 98.8868
[1]; Log [compound] -8
  hM4Di activation, concentration-response points: 65.4069 and 99.8095 and 89.0469
[1]; Log [compound] -9
  hM4Di activation, concentration-response points: 48.391 and 67.2323 and 60.3348
[1]; Log [compound] -10
  hM4Di activation, concentration-response points: 22.6996 and 44.1322 and 29.3744
[1]; Log [compound] -12
  hM4Di activation, concentration-response points: 8.666
[1]; Log [compound] -15
  hM4Di activation, concentration-response points: 7.3972 and 3.296 and 3.683
[1]; cells or tissue expressing hM4Di
  Gi/o activation, potency relative to clozapine: less potent than clozapine
[2]; D1-hM3Dq mice, 10 mg/kg
  behavior: seizure-like behavior
[2]; D1-hM3Dq mice, 0.1 and 1 mg/kg
  locomotor activity: robust decrease of locomotor activity
[2]; rodents (rats and mice)
  lowest dose activating hM3Dq: 0.1 mg/kg
[3]; Log [compound] -5
  hM3Dq activation, concentration-response points: 93.1143 and 77.3513 and 111.083
[3]; Log [compound] -6
  hM3Dq activation, concentration-response points: 96.4744 and 82.7674 and 98.8645
[3]; Log [compound] -7
  hM3Dq activation, concentration-response points: 74.044 and 103.149 and 78.6539
[3]; Log [compound] -8
  hM3Dq activation, concentration-response points: 83.0838 and 91.1589 and 81.1662
[3]; Log [compound] -9
  hM3Dq activation, concentration-response points: 6.817 and 0.07299 and 9.557
[3]; Log [compound] -10
  hM3Dq activation, concentration-response points: -3.555 and -5.9944 and 2.166
[3]; Log [compound] -11
  hM3Dq activation, concentration-response points: -13.1516 and -2.046 and 1.55
[3]; Log [compound] -12
  hM3Dq activation, concentration-response points: -8.693 and -2.2785 and 8.813
[3]; transfected HEK-293 cells
  hM3Dq-mediated intracellular Ca2+ increases: potent intracellular Ca^2+ increases comparable to that of clozapine
[4]; DREADDs in HEK-293 cells
  less affinity than CLZ: 100 fold
[4]; read-out: affinity (approximate, for equipotent concentrations), DREADD not specified
  Ki: ~0.2 µM
[4]; read-out: hM3Dq Ki
  Ki: 0.23 µM
[5]
  Ki: 0.091 µM
[6]; WT mice, 10 mg/kg
  locomotor activity / non-specific effects: produced non-specific effects
[6]; mice without DREADDs
  doses producing off-target effects: higher than 1 mg kg^-1
[6]; mouse, in vivo
  locomotor activity: did not affect locomotor activity
[7]; D1-hM4Di mice, 1 mg/kg
  locomotor activity: small but significant decrease in locomotor activity
[7]; D1-hM4Di mice, 10 mg/kg
  behavior: sedation
[7]; rodents
  dose required to activate hM4Di: at least 1 mg kg^-1
[8]; time 10
  brain/serum concentration ratio: 0.1059
[8]; time 30
  brain/serum concentration ratio: 0.2543
[8]; time 60
  brain/serum concentration ratio: 0.2987
[8]; time 120
  brain/serum concentration ratio: 0.4106
[8]; time 240
  brain/serum concentration ratio: 0.6284
[8]; systemic administration
  brain/serum ratio: low brain/serum ratios
